Activity calls are given as the source filed them. No cut-off for these calls is given here.
Tests used:
[1] = test system: K562; assay: Cytotoxicity against human K562 cells after 48 hrs by MTT assay; format: functional, cell-based; details: K562, 48 h
[2] = test system: K562-Lucena 1; assay: Cytotoxicity against human K562-Lucena 1 cells after 48 hrs by MTT assay; format: functional, cell-based; details: K562-Lucena 1, 48 h
[3] = test system: CCRF-CEM; assay: Cytotoxicity against human CCRF-CEM cells after 48 hrs by MTT assay; format: functional, cell-based
[4] = test system: ADR5000 cell line; assay: Cytotoxicity against human CEM/ADR5000 cells after 48 hrs by MTT assay; format: functional, cell-based; details: ADR5000, 48 h
[5] = test system: K562; assay: Induction of cell cycle arrest in human K562 cells assessed as accumulation of cells at G2/M phase at 2.3 uM after 24 hrs by propidium iodide staining based flow cytometric analysis (reference value: 0.4 +/- 0.2%); format: functional
[6] = test system: K562-Lucena 1; assay: Induction of cell cycle arrest in human K562-Lucena 1 cells assessed as accumulation of cells at G2/M phase at 5.1 uM after 24 hrs by propidium iodide staining based flow cytometric analysis (reference value: 3.3 +/- 0.1%); format: functional
[7] = test system: K562; assay: Induction of cell cycle arrest in human K562 cells assessed as decrease in accumulation of cells at G1 phase at 2.3 uM after 24 hrs by propidium iodide staining based flow cytometric analysis; format: functional
[8] = test system: K562; assay: Induction of cell cycle arrest in human K562 cells assessed as decrease in accumulation of cells at S phase at 2.3 uM after 24 hrs by propidium iodide staining based flow cytometric analysis; format: functional
[9] = test system: K562-Lucena 1; assay: Induction of cell cycle arrest in human K562-Lucena 1 cells assessed as decrease in accumulation of cells at G1 phase at 5.1 uM after 24 hrs by propidium iodide staining based flow cytometric analysis; format: functional
[10] = test system: K562; assay: Induction of cell cycle arrest in human K562 cells at 2.3 uM after 48 hrs by propidium iodide staining based flow cytometric analysis; format: functional
[11] = test system: K562-Lucena 1; assay: Induction of cell cycle arrest in human K562-Lucena 1 cells at 5.1 uM after 48 hrs by propidium iodide staining based flow cytometric analysis; format: functional
[12] = test system: K562; assay: Induction of apoptosis in human K562 cells assessed as viable cells at 2.3 uM after 24 hrs by Annexin V-FITC/PI double staining based flow cytometry analysis (Rvb =96.4%); format: functional; details: K562, 24 h, read-out: Activity
[13] = test system: K562; assay: Induction of apoptosis in human K562 cells assessed as early apoptotic cells at 2.3 uM after 24 hrs by Annexin V-FITC/PI double staining based flow cytometry analysis (reference value: 2.76%); format: functional
[14] = test system: K562; assay: Induction of apoptosis in human K562 cells assessed as late apoptotic cells at 2.3 uM after 24 hrs by Annexin V-FITC/PI double staining based flow cytometry analysis (reference value: 0.79%); format: functional
[15] = test system: K562; assay: Induction of apoptosis in human K562 cells assessed as necrotic cells at 2.3 uM after 24 hrs by Annexin V-FITC/PI double staining based flow cytometry analysis (reference value: 0.085%); format: functional
[16] = test system: K562; assay: Induction of apoptosis in human K562 cells assessed as viable cells at 2.3 uM after 48 hrs by Annexin V-FITC/PI double staining based flow cytometry analysis (Rvb =97.8%); format: functional; details: K562, 48 h, read-out: Activity
[17] = test system: K562; assay: Induction of apoptosis in human K562 cells assessed as early apoptotic cells at 2.3 uM after 48 hrs by Annexin V-FITC/PI double staining based flow cytometry analysis (reference value: 1.67%); format: functional
[18] = test system: K562; assay: Induction of apoptosis in human K562 cells assessed as late apoptotic cells at 2.3 uM after 48 hrs by Annexin V-FITC/PI double staining based flow cytometry analysis (reference value: 0.41%); format: functional
[19] = test system: K562; assay: Induction of apoptosis in human K562 cells assessed as necrotic cells at 2.3 uM after 48 hrs by Annexin V-FITC/PI double staining based flow cytometry analysis (reference value: 0.13%); format: functional
[20] = test system: K562-Lucena 1; assay: Induction of cell cycle arrest in human K562-Lucena 1 cells assessed as viable cells at 5.1 uM after 24 hrs by propidium iodide staining based flow cytometric analysis (reference value: 88%); format: functional; details: K562-Lucena 1, 24 h, read-out: Activity
[21] = test system: K562-Lucena 1; assay: Induction of cell cycle arrest in human K562-Lucena 1 cells assessed as early apoptotic cells at 5.1 uM after 24 hrs by propidium iodide staining based flow cytometric analysis (reference value: 7.79%); format: functional
[22] = test system: K562-Lucena 1; assay: Induction of cell cycle arrest in human K562-Lucena 1 cells assessed as late apoptotic cells at 5.1 uM after 24 hrs by propidium iodide staining based flow cytometric analysis (reference value: 3.15%); format: functional
[23] = test system: K562-Lucena 1; assay: Induction of cell cycle arrest in human K562-Lucena 1 cells assessed as necrotic cells at 5.1 uM after 24 hrs by propidium iodide staining based flow cytometric analysis (reference value: 1.03%); format: functional
[24] = test system: K562-Lucena 1; assay: Induction of cell cycle arrest in human K562-Lucena 1 cells assessed as viable cells at 5.1 uM after 48 hrs by propidium iodide staining based flow cytometric analysis (reference value: 87.1%); format: functional; details: K562-Lucena 1, 48 h, read-out: Activity
[25] = test system: K562-Lucena 1; assay: Induction of cell cycle arrest in human K562-Lucena 1 cells assessed as early apoptotic cells at 5.1 uM after 48 hrs by propidium iodide staining based flow cytometric analysis (reference value: 7.57%); format: functional
[26] = test system: K562-Lucena 1; assay: Induction of cell cycle arrest in human K562-Lucena 1 cells assessed as late apoptotic cells at 5.1 uM after 48 hrs by propidium iodide staining based flow cytometric analysis (reference value: 3.23%); format: functional
[27] = test system: K562-Lucena 1; assay: Induction of cell cycle arrest in human K562-Lucena 1 cells assessed as necrotic cells at 5.1 uM after 48 hrs by propidium iodide staining based flow cytometric analysis (reference value: 2.15%); format: functional
[28] = test system: K562; assay: Induction of DNA fragmentation in human K562 cells at 2.3 uM incubated for 48 hrs by DAPI staining based fluorescence microscopy; format: functional, cell-based
[29] = test system: K562-Lucena 1; assay: Induction of DNA fragmentation in human K562-Lucena 1 cells at 5.1 uM incubated for 48 hrs by DAPI staining based fluorescence microscopy; format: functional, cell-based
[30] = test system: K562; assay: Induction of morphological changes in human K562 cells assessed as appearance of condensed chromatin at 2.3 uM incubated for 48 hrs by DAPI staining based fluorescence microscopy; format: functional, cell-based
[31] = test system: K562-Lucena 1; assay: Induction of morphological changes in human K562-Lucena 1 cells assessed as appearance of condensed chromatin at 5.1 uM incubated for 48 hrs by DAPI staining based fluorescence microscopy; format: functional, cell-based
[32] = test system: K562; assay: Induction of morphological changes in human K562 cells assessed as appearance of apoptotic bodies at 2.3 uM incubated for 48 hrs by DAPI staining based fluorescence microscopy; format: functional, cell-based
[33] = test system: K562-Lucena 1; assay: Induction of morphological changes in human K562-Lucena 1 cells assessed as appearance of apoptotic bodies at 5.1 uM incubated for 48 hrs by DAPI staining based fluorescence microscopy; format: functional, cell-based
[34] = test system: K562; assay: Induction of cell cycle arrest in human K562 cells assessed as increase in hypodiploid cells at sub-G1 phase at 2.3 uM after 48 hrs by propidium iodide staining based flow cytometric analysis; format: functional
[35] = test system: K562-Lucena 1; assay: Induction of cell cycle arrest in human K562-Lucena 1 cells assessed as increase in hypodiploid cells at sub-G1 phase at 5.1 uM after 48 hrs by propidium iodide staining based flow cytometric analysis; format: functional
[36] = test system: PBMC; assay: Cytotoxicity against PBMC (unknown origin) after 48 hrs by MTT assay; format: cell-based

C=C(C)C(=O)O[C@H]1C/C(CO)=C/CC[C@@]2(C)O[C@H]2[C@H]2OC(=O)C(=C)[C@@H]21
IC50 [1]: 2.3 µM | IC50 [2]: 5.1 µM | IC50 [3]: 0.42 µM | IC50 [4]: 0.4 µM | Activity [5]: 15.1% | Activity [6]: 23.2% | Activity [7]: inactive | Activity [8]: inactive | Activity [9]: Active | Activity [10]: inactive | Activity [11]: inactive | viability at 2.3 µM [12]: 96.7% | Activity [13]: 2.26% | Activity [14]: 0.64% | Activity [15]: 0.42% | viability at 2.3 µM [16]: 66.4% | Activity [17]: 30.6% | Activity [18]: 2.38% | Activity [19]: 0.56% | viability at 5.1 µM [20]: 80.4% | Activity [21]: 14.7% | Activity [22]: 3.46% | Activity [23]: 1.38% | viability at 5.1 µM [24]: 54.5% | Activity [25]: 31.4% | Activity [26]: 10.8% | Activity [27]: 3.29% | Activity [28]: Active | Activity [29]: Active | Activity [30]: Active | Activity [31]: Active | Activity [32]: Active | Activity [33]: Active | Activity [34]: Active | Activity [35]: Active | IC50 [36]: 79.9 µM

C=C(CO)C(=O)O[C@H]1C/C(CO)=C/CC/C(C)=C/[C@H]2OC(=O)C(=C)[C@H]12
IC50 [1]: 7 µM | IC50 [2]: > 10 µM | IC50 [3]: 0.46 µM | IC50 [4]: 1.7 µM

C=C(CO)C(=O)O[C@H]1C[C@@]2(C=O)OC2CC/C(C)=C/[C@H]2OC(=O)C(=C)[C@H]12 (some centres undefined)
IC50 [1]: 6.9 µM | IC50 [2]: > 10 µM | IC50 [3]: 2 µM | IC50 [4]: 4.6 µM

From ChEMBL document CHEMBL4622878, “Cytotoxic Activity of Germacrane-Type Sesquiterpene Lactones from Dimerostemma aspilioides” (J Nat Prod, 2020)
